Data taken from paper PMC12337661, “PIEZO1 mechanical insensitivity in generalized lymphatic dysplasia with the potential for pharmacological rescue” (iScience, 2025).
pEC50: −log10 of the molar value.

How the values were obtained:
Assay in all cases: Intracellular Ca2+ measurement (fura-2), T-REx-293 cells stably transfected
Assay type in all cases: cell-based
WT mPIEZO1 = target: T1, WT mPIEZO1 (Mus musculus, UniProt E2JF22); details: 1.5 min exposure
T1 construct: expressed in transfected cells
T1 sequence (E2JF22 whole entry): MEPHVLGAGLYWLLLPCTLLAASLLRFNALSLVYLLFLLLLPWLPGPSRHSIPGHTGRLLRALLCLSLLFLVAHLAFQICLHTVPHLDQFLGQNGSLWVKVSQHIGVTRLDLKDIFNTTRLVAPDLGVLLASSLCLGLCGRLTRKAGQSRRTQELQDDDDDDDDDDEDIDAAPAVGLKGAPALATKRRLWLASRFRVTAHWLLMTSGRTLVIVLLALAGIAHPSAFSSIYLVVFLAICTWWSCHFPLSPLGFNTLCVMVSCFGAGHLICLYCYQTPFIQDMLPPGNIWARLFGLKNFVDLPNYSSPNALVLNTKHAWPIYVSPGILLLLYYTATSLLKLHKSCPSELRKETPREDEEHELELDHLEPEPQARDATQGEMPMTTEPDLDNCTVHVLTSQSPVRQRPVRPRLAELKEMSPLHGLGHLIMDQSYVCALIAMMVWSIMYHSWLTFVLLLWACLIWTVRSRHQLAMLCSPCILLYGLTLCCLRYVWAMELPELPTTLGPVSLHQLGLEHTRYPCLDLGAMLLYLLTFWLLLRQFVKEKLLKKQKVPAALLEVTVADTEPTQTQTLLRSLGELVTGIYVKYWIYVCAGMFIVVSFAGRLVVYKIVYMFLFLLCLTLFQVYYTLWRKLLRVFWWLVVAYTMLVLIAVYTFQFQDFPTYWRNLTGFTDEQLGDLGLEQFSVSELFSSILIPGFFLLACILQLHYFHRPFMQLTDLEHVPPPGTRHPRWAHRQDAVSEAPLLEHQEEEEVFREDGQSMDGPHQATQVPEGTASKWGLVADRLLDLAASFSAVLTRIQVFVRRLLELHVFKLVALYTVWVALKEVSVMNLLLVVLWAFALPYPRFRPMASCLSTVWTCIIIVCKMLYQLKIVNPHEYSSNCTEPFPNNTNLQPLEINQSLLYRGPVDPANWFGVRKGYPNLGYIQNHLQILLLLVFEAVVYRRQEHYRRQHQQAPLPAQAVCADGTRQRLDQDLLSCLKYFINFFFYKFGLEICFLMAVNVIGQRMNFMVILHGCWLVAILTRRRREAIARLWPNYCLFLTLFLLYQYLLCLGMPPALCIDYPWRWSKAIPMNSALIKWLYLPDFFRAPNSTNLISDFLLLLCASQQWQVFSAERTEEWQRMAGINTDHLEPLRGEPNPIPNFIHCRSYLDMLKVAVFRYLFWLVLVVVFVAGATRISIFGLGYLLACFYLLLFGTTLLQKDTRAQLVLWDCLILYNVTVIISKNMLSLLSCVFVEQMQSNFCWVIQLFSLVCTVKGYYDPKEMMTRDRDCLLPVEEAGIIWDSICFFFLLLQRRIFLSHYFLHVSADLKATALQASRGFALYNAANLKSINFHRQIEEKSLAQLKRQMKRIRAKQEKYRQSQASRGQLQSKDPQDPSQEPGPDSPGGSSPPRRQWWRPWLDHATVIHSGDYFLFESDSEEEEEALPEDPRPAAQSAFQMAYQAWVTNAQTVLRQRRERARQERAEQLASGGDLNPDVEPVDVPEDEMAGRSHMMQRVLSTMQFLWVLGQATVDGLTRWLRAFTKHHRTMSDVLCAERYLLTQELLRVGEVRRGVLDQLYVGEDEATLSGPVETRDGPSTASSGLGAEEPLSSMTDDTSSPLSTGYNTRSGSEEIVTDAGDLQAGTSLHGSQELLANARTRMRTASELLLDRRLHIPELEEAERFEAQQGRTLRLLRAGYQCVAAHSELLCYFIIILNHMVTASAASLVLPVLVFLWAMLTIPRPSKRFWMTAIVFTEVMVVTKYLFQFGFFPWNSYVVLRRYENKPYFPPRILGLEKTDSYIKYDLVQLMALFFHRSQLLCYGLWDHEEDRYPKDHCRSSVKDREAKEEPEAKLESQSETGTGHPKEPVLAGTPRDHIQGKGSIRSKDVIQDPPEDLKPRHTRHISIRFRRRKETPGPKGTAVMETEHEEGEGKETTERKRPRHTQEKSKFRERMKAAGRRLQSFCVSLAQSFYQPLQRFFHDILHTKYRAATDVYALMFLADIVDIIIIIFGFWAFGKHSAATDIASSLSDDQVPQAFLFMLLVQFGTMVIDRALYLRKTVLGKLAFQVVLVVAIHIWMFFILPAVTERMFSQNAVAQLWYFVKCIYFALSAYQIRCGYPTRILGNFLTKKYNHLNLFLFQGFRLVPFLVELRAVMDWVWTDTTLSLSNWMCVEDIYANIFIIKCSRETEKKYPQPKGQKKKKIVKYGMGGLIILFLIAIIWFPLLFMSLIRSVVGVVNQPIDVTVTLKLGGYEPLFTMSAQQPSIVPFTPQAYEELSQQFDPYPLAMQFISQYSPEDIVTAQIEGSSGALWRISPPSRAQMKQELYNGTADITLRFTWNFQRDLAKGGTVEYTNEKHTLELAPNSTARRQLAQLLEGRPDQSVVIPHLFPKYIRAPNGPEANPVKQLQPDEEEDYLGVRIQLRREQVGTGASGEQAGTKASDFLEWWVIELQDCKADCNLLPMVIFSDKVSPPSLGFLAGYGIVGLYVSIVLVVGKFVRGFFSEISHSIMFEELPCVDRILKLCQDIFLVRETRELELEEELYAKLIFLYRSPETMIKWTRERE
Description: (§1) T-REx-293 cell line was transfected with pcDNA4/TO-mPIEZO1 constructs using Lipofectamine 2000 (Invitrogen) as above and treated with 200 μg.mL^−1 zeocin (InvivoGen) to select for stably transfected cells. At least two strongly expressing clonal cell lines were established and tested for each variant. All cell lines were maintained in Dulbecco’s Modified Eagle’s medium (Invitrogen) supplemented with 10% heat-inactivated fetal calf serum (Sigma-Aldrich), penicillin (50 units.mL^−1) and streptomycin (0.5 mg.mL^−1) (Sigma-Aldrich) and grown at 37°C in a humidified 5% CO2 incubator.
(§2) For intracellular Ca^2+ assays, cells were plated at 80–90% confluence in 96-well plates 24 h prior to recordings (6–8 × 10^4 cells per well). […] Cells were washed with SBS and incubated at room temperature for 20 min prior to recordings. Equal volumes of 2x concentrated compounds were injected to test for acute channel activation. Pre-incubation with compounds occurred during the 20 min prior to recordings. To expose cell membranes to hypo-osmolality, an equal volume of hypotonic SBS (containing only 35 mM NaCl) was injected onto the cells. Measurements were made on a fluorescence plate reader (Flexstation III, Molecular Devices) at room temperature (21 ± 2°C). Fura-2 was excited at 340 nm and 380 nm and emitted light collected at 510 nm, with measurements shown as the change in fluorescence (F) ratio (ΔF340/380).
(§3) KC41 (Dooku1) was prepared as described.[28] All purchased chemicals and solvents were used without further purification unless otherwise stated. All compounds were at least 95% pure by 1H NMR. 1H Nuclear Magnetic Resonance spectra were recorded at 500 MHz using a Bruker DRX 500 instrument or at 400 MHz using a Bruker DPX 400. 1H spectra are referenced based on the residual proton in the solvent (e.g., the CHCl3, 0.01% in 99.99% CDCl3). Coupling constants (J) are reported to the nearest 0.1 Hz. 13C NMR spectra were recorded at 125 MHz on 500 MHz spectrometers or at 100 MHz on 400 MHz spectrometers. LC-MS was performed on a Bruker Daltronics running a gradient of increasing acetonitrile (5–95%) in H2O both containing 0.1% formic acid at 1 mL.min^−1, on a short path C18 reverse phase column, detecting compounds with both a diode array detector and a Bruker mass spectrum analyser. HRMS was performed on a Bruker Daltonics micrOTOF using positive electrospray ionisation (ES+). Automated column chromatograph was carried out using a Biotage Isolera Four, using either Sfär Silica D or KP-Silica cartridges. HPLC was performed on an Agilent 1290 Infinity Series equipped with a UV detector and Hyperprep C18 reverse phase column. Key to NMR abbreviations: s (singlet), br s (broad singlet) d (doublet), dd (doublet of doublets), ddd (doublet of doublets of doublets), t (triplet), dt (doublet of triples), q (quartet), m (multiplet), ap. t (apparent triplet). For experiments, Yoda1 and its analogues were prepared as 10 mM stock solutions in 100% dimethyl sulfoxide (DMSO) before serial dilution in DMSO and final dilution in aqueous solution. Cells were exposed to 0.1% DMSO for all concentrations of the compounds from 0 to 10 μM.

G1994D mPIEZO1 = target: T2, G1994D mPIEZO1 (Mus musculus, UniProt E2JF22, G1994D); details: for Mean normalise fluorescence (Figure 5d): G1994D
T2 construct: expressed in transfected cells
T2 sequence (E2JF22 whole entry G1994D): as the sequence (E2JF22 whole entry) above, with G1994D counted along it
Description: as §1, §2, §3

I2286T mPIEZO1 = target: T3, I2286T mPIEZO1 (Mus musculus, UniProt E2JF22, I2286T)
T3 construct: expressed in transfected cells
T3 sequence (E2JF22 whole entry I2286T): as the sequence (E2JF22 whole entry) above, with I2286T counted along it
Description: as §1, §2, §3

E824V mPIEZO1 = target: T4, E824V mPIEZO1 (Mus musculus, UniProt E2JF22, E824V); details: versus WT
T4 construct: expressed in transfected cells
T4 sequence (E2JF22 whole entry E824V): as the sequence (E2JF22 whole entry) above, with E824V counted along it
Description: as §1, §2, §3

[1] = long (20 min) exposure, normalized to 3 μM Yoda1

Clc1cccc(Cl)c1CSc1nnc(-c2cnccn2)s1 [Yoda1]
Mean normalise fluorescence (WT mPIEZO1; 0.01 µM): 0.01111 | Mean normalise fluorescence (WT mPIEZO1; 0.03 µM): 0.04107 | Mean normalise fluorescence (WT mPIEZO1; 0.1 µM): 0.2255 | Mean normalise fluorescence (WT mPIEZO1; 0.3 µM): 0.6112 | Mean normalise fluorescence (WT mPIEZO1; 1 µM): 0.8879 | Mean normalise fluorescence (WT mPIEZO1; 3 µM): 0.9862 | Mean normalise fluorescence (WT mPIEZO1; 5 µM): 1.0356 | Mean normalise fluorescence (WT mPIEZO1; 10 µM): 1 | pEC50 (WT mPIEZO1; fitted Hill equation): 6.62 | Mean normalise fluorescence (Figure 5d) (G1994D mPIEZO1; Yoda1 concentration 0.01 µM): 0.00218 | Mean normalise fluorescence (Figure 5d) (G1994D mPIEZO1; Yoda1 concentration 0.03 µM): 0.00674 | Mean normalise fluorescence (Figure 5d) (G1994D mPIEZO1; Yoda1 concentration 0.1 µM): 0.01862 | Mean normalise fluorescence (Figure 5d) (G1994D mPIEZO1; Yoda1 concentration 0.3 µM): 0.1159 | Mean normalise fluorescence (Figure 5d) (G1994D mPIEZO1; Yoda1 concentration 1 µM): 0.3636 | Mean normalise fluorescence (Figure 5d) (G1994D mPIEZO1; Yoda1 concentration 3 µM): 0.6853 | Mean normalise fluorescence (Figure 5d) (G1994D mPIEZO1; Yoda1 concentration 5 µM): 0.8762 | Mean normalise fluorescence (Figure 5d) (G1994D mPIEZO1; Yoda1 concentration 10 µM): 1 | pEC50 (G1994D mPIEZO1; [1]): 6.51 | Effect on mPIEZO1 channel function (G1994D mPIEZO1; versus WT): reduced MA: LOF; reduced inactivation: GOF; reduced Y1 potency | Mean (ΔFratio) (I2286T mPIEZO1; 0.3 µM, time 0 s): 0.00284 | Mean (ΔFratio) (I2286T mPIEZO1; 0.3 µM, time 5 s): -0.01214 | Mean (ΔFratio) (I2286T mPIEZO1; 0.3 µM, time 10 s): -0.00475 | Mean (ΔFratio) (I2286T mPIEZO1; 0.3 µM, time 15 s): 0.0078 | Mean (ΔFratio) (I2286T mPIEZO1; 0.3 µM, time 20 s): 0.0053 | Mean (ΔFratio) (I2286T mPIEZO1; 0.3 µM, time 25 s): 9.46E-04 | Mean (ΔFratio) (I2286T mPIEZO1; 0.3 µM, time 30 s): -0.3226 | Mean (ΔFratio) (I2286T mPIEZO1; 0.3 µM, time 35 s): 0.06275 | Mean (ΔFratio) (I2286T mPIEZO1; 0.3 µM, time 40 s): 0.07886 | Mean (ΔFratio) (I2286T mPIEZO1; 0.3 µM, time 45 s): 0.1026 | Mean (ΔFratio) (I2286T mPIEZO1; 0.3 µM, time 50 s): 0.1196 | Mean (ΔFratio) (I2286T mPIEZO1; 0.3 µM, time 55 s): 0.1055 | Mean (ΔFratio) (I2286T mPIEZO1; 0.3 µM, time 60 s): 0.1268 | Mean (ΔFratio) (I2286T mPIEZO1; 0.3 µM, time 65 s): 0.1277 | Mean (ΔFratio) (I2286T mPIEZO1; 0.3 µM, time 70 s): 0.1132 | Mean (ΔFratio) (I2286T mPIEZO1; 0.3 µM, time 75 s): 0.108 | Mean (ΔFratio) (I2286T mPIEZO1; 0.3 µM, time 80 s): 0.1196 | Mean (ΔFratio) (I2286T mPIEZO1; 0.3 µM, time 85 s): 0.1097 | Mean (ΔFratio) (I2286T mPIEZO1; 0.3 µM, time 90 s): 0.1266 | Mean (ΔFratio) (I2286T mPIEZO1; 0.3 µM, time 95 s): 0.09696 | Mean (ΔFratio) (I2286T mPIEZO1; 0.3 µM, time 100 s): 0.1131 | Mean (ΔFratio) (I2286T mPIEZO1; 0.3 µM, time 105 s): 0.1125 | Mean (ΔFratio) (I2286T mPIEZO1; 0.3 µM, time 110 s): 0.1236 | Mean (ΔFratio) (I2286T mPIEZO1; 0.3 µM, time 115 s): 0.1032 | Mean (ΔFratio) (I2286T mPIEZO1; 0.3 µM, time 120 s): 0.1051 | Mean (ΔFratio) (I2286T mPIEZO1; 0.3 µM, time 125 s): 0.1128 | Mean (ΔFratio) (I2286T mPIEZO1; 0.3 µM, time 130 s): 0.1149 | Mean (ΔFratio) (I2286T mPIEZO1; 3 µM, time 0 s): 0.00514 | Mean (ΔFratio) (I2286T mPIEZO1; 3 µM, time 5 s): -0.00971 | Mean (ΔFratio) (I2286T mPIEZO1; 3 µM, time 10 s): -0.01128 | Mean (ΔFratio) (I2286T mPIEZO1; 3 µM, time 15 s): -0.00374 | Mean (ΔFratio) (I2286T mPIEZO1; 3 µM, time 20 s): 0.00352 | Mean (ΔFratio) (I2286T mPIEZO1; 3 µM, time 25 s): 0.01607 | Mean (ΔFratio) (I2286T mPIEZO1; 3 µM, time 30 s): -0.3514 | Mean (ΔFratio) (I2286T mPIEZO1; 3 µM, time 35 s): -7.87E-04 | Mean (ΔFratio) (I2286T mPIEZO1; 3 µM, time 40 s): 0.4454 | Mean (ΔFratio) (I2286T mPIEZO1; 3 µM, time 45 s): 0.684 | Mean (ΔFratio) (I2286T mPIEZO1; 3 µM, time 50 s): 0.8254 | Mean (ΔFratio) (I2286T mPIEZO1; 3 µM, time 55 s): 0.9146 | Mean (ΔFratio) (I2286T mPIEZO1; 3 µM, time 60 s): 1.017 | Mean (ΔFratio) (I2286T mPIEZO1; 3 µM, time 65 s): 0.992 | Mean (ΔFratio) (I2286T mPIEZO1; 3 µM, time 70 s): 1.046 | Mean (ΔFratio) (I2286T mPIEZO1; 3 µM, time 75 s): 1.071 | Mean (ΔFratio) (I2286T mPIEZO1; 3 µM, time 80 s): 1.067 | Mean (ΔFratio) (I2286T mPIEZO1; 3 µM, time 85 s): 1.06 | Mean (ΔFratio) (I2286T mPIEZO1; 3 µM, time 90 s): 1.0819 | Mean (ΔFratio) (I2286T mPIEZO1; 3 µM, time 95 s): 1.076 | Mean (ΔFratio) (I2286T mPIEZO1; 3 µM, time 100 s): 1.0617 | Mean (ΔFratio) (I2286T mPIEZO1; 3 µM, time 105 s): 1.0398 | Mean (ΔFratio) (I2286T mPIEZO1; 3 µM, time 110 s): 1.005 | Mean (ΔFratio) (I2286T mPIEZO1; 3 µM, time 115 s): 1.038 | Mean (ΔFratio) (I2286T mPIEZO1; 3 µM, time 120 s): 1.008 | Mean (ΔFratio) (I2286T mPIEZO1; 3 µM, time 125 s): 0.9978 | Mean (ΔFratio) (I2286T mPIEZO1; 3 µM, time 130 s): 0.9846 | Mean normalise fluorescence (I2286T mPIEZO1; 1.5 min exposure, 0.03 µM): -0.00469 | Mean normalise fluorescence (I2286T mPIEZO1; 1.5 min exposure, 0.1 µM): -0.00217 | Mean normalise fluorescence (I2286T mPIEZO1; 1.5 min exposure, 0.3 µM): 0.03506 | Mean normalise fluorescence (I2286T mPIEZO1; 1.5 min exposure, 1 µM): 0.1805 | Mean normalise fluorescence (I2286T mPIEZO1; 1.5 min exposure, 3 µM): 0.4613 | Mean normalise fluorescence (I2286T mPIEZO1; 1.5 min exposure, 5 µM): 0.7197 | Mean normalise fluorescence (I2286T mPIEZO1; 1.5 min exposure, 10 µM): 1 | Mean normalise fluorescence (I2286T mPIEZO1; 20 min exposure, normalized to 3 μM, 0.03 µM): 0.09646 | Mean normalise fluorescence (I2286T mPIEZO1; 20 min exposure, normalized to 3 μM, 0.1 µM): 0.04298 | Mean normalise fluorescence (I2286T mPIEZO1; 20 min exposure, normalized to 3 μM, 0.3 µM): 0.2627 | Mean normalise fluorescence (I2286T mPIEZO1; 20 min exposure, normalized to 3 μM, 1 µM): 0.9872 | Mean normalise fluorescence (I2286T mPIEZO1; 20 min exposure, normalized to 3 μM, 3 µM): 1 | Mean normalise fluorescence (I2286T mPIEZO1; 20 min exposure, normalized to 3 μM, 10 µM): 0.9221 | pEC50 (I2286T mPIEZO1; [1]): 6.39 | Effect on mPIEZO1 channel function (I2286T mPIEZO1; versus WT): loss of MA: LOF; reduced Y1 potency | Effect on mPIEZO1 channel function (E824V mPIEZO1): reduced Y1 potency
